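Following 48 hours of exposure in 96-well plates, responses at five concentrations were used to interpolate endpoints linearly. GI50 = concentration required for 50% inhibition of growth. The concentration for full growth arrest is given as TGI.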
Tests used:
Assay in all cases: NCI tumour cell line growth inhibition, 48 h
U251 CNS = test system: U251 CNS
SR leukemia = test system: SR leukemia
NCI-H23 lung = test system: NCI-H23 lung
TK-10 renal = test system: TK-10 renal
MOLT-4 leukemia = test system: MOLT-4 leukemia
PC-3 prostate = test system: PC-3 prostate
HCC-2998 colon = test system: HCC-2998 colon
HCT-15 colon = test system: HCT-15 colon
M14 melanoma = test system: M14 melanoma
IGROV1 ovarian = test system: IGROV1 ovarian

| Structure (SMILES) | GI50 (U251 CNS) [µM] | TGI (U251 CNS) [µM] | GI50 (SR leukemia) [µM] | TGI (SR leukemia) [µM] | GI50 (NCI-H23 lung) [µM] | TGI (NCI-H23 lung) [µM] | GI50 (TK-10 renal) [µM] | TGI (TK-10 renal) [µM] | GI50 (MOLT-4 leukemia) [µM] | TGI (MOLT-4 leukemia) [µM] | GI50 (PC-3 prostate) [µM] | TGI (PC-3 prostate) [µM] | GI50 (HCC-2998 colon) [µM] | TGI (HCC-2998 colon) [µM] | GI50 (HCT-15 colon) [µM] | TGI (HCT-15 colon) [µM] | GI50 (M14 melanoma) [µM] | TGI (M14 melanoma) [µM] | GI50 (IGROV1 ovarian) [µM] | TGI (IGROV1 ovarian) [µM] |
| --- | --- | --- | --- | --- | --- | --- | --- | --- | --- | --- | --- | --- | --- | --- | --- | --- | --- | --- | --- | --- |
| C=CCN(/C=C1/C(=O)O[C@H](COC)[C@@]2(C)C1=C(O)C(=O)C1=C2[C@H](OC(C)=O)C[C@]2(C)C(=O)CC[C@@H]12)CC=C | 2.12 | > 10 | 0.708 | > 10 | > 5.65 | > 10 | 0.193 | > 7.79 | 1.05 | > 10 | 0.177 | > 10 | 0.385 | > 7.08 | 1.19 | > 10 | 2.95 | > 10 | 0.135 | 6.81 |
| CCn1c(C(=O)N(C2CC2)C2CC2)cc2c3c(ncn3C)c(Nc3cc(C)n(C)n3)nc21 | > 100 | > 100 | 16.8 | > 100 | > 100 | > 100 | > 100 | > 100 | > 100 | > 100 | > 100 | > 100 | > 100 | > 100 | > 100 | > 100 | > 100 | > 100 | 7.62 | > 100 |
| O=Nc1c(-c2c(O)[nH]c3ccc([N+](=O)[O-])cc23)[nH]c2ccc(O)cc12 | 0.325 | > 35.1 | 0.258 | 12.6 | 0.549 | > 49.5 | 2.24 | > 100 | 0.359 | 4.21 | 0.394 | > 100 | 0.836 | > 100 | 0.376 | > 100 | 0.496 | > 87 | 0.312 | > 100 |
| C[C@H](NC(=O)[C@@H]1CSSC[C@@H](NC(=O)c2nc3ccccc3cc2O)C(=O)NCC(=O)N1C)c1ccccc1 | 2.38 | 7.46 | 0.17 | 0.877 | 5.14 | 12.6 | 8.06 | 15.5 | 0.894 | 3.27 | 5.98 | 13.5 | 7.48 | 17.1 | 2.55 | 9.62 | 0.318 | 9.76 | 2.59 | 12.4 |
| COc1ccc(-c2nc3sc(-c4ccc(Cl)cc4)cn3n2)cc1 | 1.03 | 2.29 | 4.53 | 26.1 | 6.66 | > 50 | 2.01 | 5.62 | 11.3 | > 50 | > 50 | > 50 | > 50 | > 50 | 24.5 | > 50 | > 50 | > 50 | 1.15 | 8.13 |
| Cc1ccc(/C(=N\N=C(N)N)c2ccccc2)cc1 | 0.365 | 11.5 | 1.83 | 24.8 | 0.597 | 9.98 | 0.549 | 15.1 | 0.796 | > 92.3 | 0.406 | 18.7 | 0.241 | 0.677 | 0.371 | 11.5 | 0.285 | 0.977 | 0.459 | 31.4 |
| CC(C)CNCC(O)COc1ccc(C(C)(C)c2ccc(OCC(O)CNCC(C)C)cc2)cc1 (stereo not given) | 1.55 | 2.91 | 2.02 | 4.39 | 11.7 | 25.5 | 2.03 | 5.32 | 2.03 | 5.16 | 2.3 | 7.02 | 2.02 | 4.26 | 2.2 | 7.35 | 1.76 | 3.43 | 3.66 | 15.5 |
